Earlier results on one molecule are cited in US20050181036A1 (Research Development Foundation, priority 2003, published 2005).

The structures appear in SMILES notation. “Also recorded” adds a separate entry of the source.

Regarding `COc1cc(/C=C/C(=O)CC(=O)/C=C/c2ccc(O)c(OC)c2)ccc1O` [Curcumin, diferuloylmethane], for the setting “dimethylsulfoxide”, the solubility in dimethylsulfoxide result is “soluble”. In addition, the solubility in ethanol result (ethanol) is on record as “soluble”. Also, the solubility in ether entry (ether) is “insoluble”. Besides, the solubility in water entry (water) was “insoluble; also recorded: not water-soluble”.
